Results as given in US8853258B2, “C-linked hydroxamic acid derivatives useful as antibacterial agents” (Pfizer Inc., priority 2009, dated 2014).
Converted amounts (≈) assume the structure as drawn. Like-named read-outs stand apart in the source and are kept apart here.

Assays:
Format in all cases: cell-based
[1] = tested on: Pseudomonas aeruginosa UI-18: Wild-type (PA-7); assay: MIC determination (CLSI), PA-7; details: for MIC: Pseudomonas aeruginosa
In short: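 Wild-type P. aeruginosa UI-18 tested for minimum inhibitory concentration. Broth/agar dilution following CLSI standards (M7-A7, M100-S18).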

[2] = tested on: Klebsiella pneumoniae: Ciprofloxacin-resistant isolate, ESBL, clinical isolate (KP-3700); assay: MIC determination (CLSI), KP-3700
In short: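 Strain KP-3700, a clinical isolate producing extended-spectrum β-lactamases and resistant to ciprofloxacin, was tested. Minimum inhibitory concentrations determined via CLSI dilution methodology (M7-A7; M100-S18).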

[3] = tested on: Acinetobacter baumanii/haemolyticus: Multidrug-resistant clinical isolate (AB-3167); assay: MIC determination (CLSI), AB-3167; details: for MIC: Acinetobacter baumannii
In short: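 Multidrug-resistant clinical isolate AB-3167 (A. baumannii/haemolyticus) tested for minimum inhibitory concentration following CLSI dilution susceptibility standards M7-A7 and M100-S18.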

[4] = tested on: Escherichia coli EC-1: VOGEL, mouse virulent; assay: MIC determination (CLSI), EC-1; details: for MIC: Escherichia coli
In short: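 E. coli Vogel, a mouse-virulent strain (EC-1), was tested. MICs were set by dilution susceptibility testing per CLSI standards M7-A7/M100-S18.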

[5] = Pseudomonas aeruginosa UI-18 wild-type PA-7
[6] = Acinetobacter baumanii/haemolyticus multidrug-resistant clinical isolate AB-3167
[7] = Escherichia coli EC-1 VOGEL, mouse virulent

| SMILES | PA-7 MIC [1, 5] | KP-3700 MIC [2] | AB-3167 MIC [3, 6] | EC-1 MIC [4, 7] | further results |
| --- | --- | --- | --- | --- | --- |
| CC(CCc1ccc(-c2cc(F)cc(F)c2)cc1)(C(=O)NO)S(C)(=O)=O (stereo not drawn) [Example 97] | 1 µg/mL | 4 µg/mL | 8 µg/mL | 2 µg/mL |  |
| CC(CCc1ccc(OCc2nc(-c3cccc(F)c3)no2)cc1)(C(=O)NO)S(C)(=O)=O (stereo not drawn) [Example 241, 4-(4-{[3-(3-fluorophenyl)-1,2,4-oxadiazol-5-yl]methoxy}phenyl)-N-hydroxy-2-methyl-2-(methylsulfonyl)butanamide] |  | ≧64 mg/L |  |  | MIC ([1]; Table 3, read-out: PA-7 MIC): 32 µg/mL (≈ 69 µM); MIC ([3]; Table 3, read-out: AB-3167 MIC): 16 µg/mL (≈ 34.5 µM); MIC ([4]; read-out: EC-1 MIC): 8 µg/mL (≈ 17.3 µM) |
| CCc1ccccc1-c1ccc(CCC(C)(C(=O)NO)S(C)(=O)=O)cc1 (racemic) [Example 69] | 16 µg/mL | ≧64 mg/L | ≧64 mg/L | 16 µg/mL |  |
| CC(CCc1ccc(-c2cncnc2)cc1)(C(=O)NO)S(C)(=O)=O (racemic) [Example 80] | 8 µg/mL | 32 µg/mL | ≧64 mg/L | 8 µg/mL |  |
| Cc1ncccc1COc1ccc(CCC(C)(C(=O)NO)S(C)(=O)=O)cc1 (stereo not drawn) [Example 245, N-hydroxy-2-methyl-4-{4-[(2-methylpyridin-3-yl)methoxy]phenyl}-2-(methylsulfonyl)butanamide] |  | ≧64 mg/L |  |  | MIC ([1]; Table 3, read-out: PA-7 MIC): 32 µg/mL (≈ 81.5 µM); MIC ([3]; Table 3, read-out: AB-3167 MIC): ≥ 64 µg/mL; MIC ([4]; read-out: EC-1 MIC): ≥ 64 µg/mL |
| CC(CCc1ccc(-c2ccc(C[C@@H](N)C(=O)O)cc2)cc1)(C(=O)NO)S(C)(=O)=O (stereo partly drawn) [Example 232] |  | ≧64 mg/L |  |  | PA-7 MIC ([1]; Pseudomonas aeruginosa UI-18 (PA-7)): 32 µg/mL; AB-3167 MIC ([3]; Acinetobacter baumanii/haemolyticus AB-3167): ≧64 mg/L; EC-1 MIC ([4]; Escherichia coli EC-1): ≧64 mg/L |
| CC(CCc1ccc(OC2CCCC2)cc1)(C(=O)NO)S(C)(=O)=O (racemic) [Example 15, (+/−)-4-[4-(Cyclopentyloxy)phenyl]-N-hydroxy-2-methyl-2-(methylsulfonyl)butanamide] |  | ≧64 mg/L |  |  | MIC ([1]; Table 1, MIC, read-out: PA-7 (MIC)): 4 µg/mL (≈ 11.3 µM); MIC ([3]; Table 1, MIC, read-out: AB-3167 (MIC)): 32 µg/mL (≈ 90 µM); MIC ([4]; read-out: EC-1: (MIC)): 16 µg/mL (≈ 45 µM) |
| CC(CCc1ccc(OCc2nc(C3CCCC3)no2)cc1)(C(=O)NO)S(C)(=O)=O (stereo not drawn) [Example 273, 4-{4-[(3-cyclopentyl-1,2,4-oxadiazol-5-yl)methoxy]phenyl}-N-hydroxy-2-methyl-2-(methylsulfonyl)butanamide] |  | 32 µg/mL |  |  | MIC ([1]; Table 3, read-out: PA-7 MIC): ≥ 64 µg/mL; MIC ([3]; Table 3, read-out: AB-3167 MIC): ≥ 64 µg/mL; MIC ([4]; read-out: EC-1 MIC): 16 µg/mL (≈ 36.6 µM) |
| CC(CCc1ccc(-c2ccoc2)cc1)(C(=O)NO)S(C)(=O)=O (stereo not drawn) [Example 95] | 4 µg/mL | 16 µg/mL | ≧64 mg/L | 16 µg/mL |  |
| CC(CCc1ccc(-c2ccc(OCCCN)cc2)cc1)(C(=O)NO)S(C)(=O)=O (stereo not drawn) [Example 117] | 8 µg/mL | ≧64 mg/L | ≧64 mg/L | ≧64 mg/L |  |
| CC(CCc1ccc(-c2ccc(OCCO)c(F)c2F)cc1)(C(=O)NO)S(C)(=O)=O (stereo not drawn) [Example 147] | 1 µg/mL | 8 µg/mL | 32 µg/mL | 2 µg/mL |  |
| CC(CCc1ccc(OCc2cc(C#N)ccc2F)cc1)(C(=O)NO)S(C)(=O)=O (stereo not drawn) [Example 275, 4-{4-[(5-cyano-2-fluorobenzyl)oxy]phenyl}-N-hydroxy-2-methyl-2-(methylsulfonyl)butanamide] |  | ≧64 mg/L |  |  | MIC ([1]; Table 3, read-out: PA-7 MIC): 32 µg/mL (≈ 76.1 µM); MIC ([3]; Table 3, read-out: AB-3167 MIC): ≥ 64 µg/mL; MIC ([4]; read-out: EC-1 MIC): ≥ 64 µg/mL |
| CC(CCc1ccc(-c2ccc(C#N)c(O)c2)cc1)(C(=O)NO)S(C)(=O)=O (stereo not drawn) [Example 142] | 32 µg/mL | ≧64 mg/L | ≧64 mg/L | ≧64 mg/L |  |
| CNC(=O)c1ccc(-c2ccc(CCC(C)(C(=O)NO)S(C)(=O)=O)cc2)cc1 (racemic) [Example 85] | 16 µg/mL | ≧64 mg/L | ≧64 mg/L | 32 µg/mL |  |
| CC(CCc1ccc(-c2ccc(OCCCCN)cc2)cc1)(C(=O)NO)S(C)(=O)=O (stereo not drawn) [Example 118] | 16 µg/mL | ≧64 mg/L | ≧64 mg/L | 32 µg/mL |  |
